Measured values published in patent publication US5441941A, “1,2-dihydroellipticines with activity against CNS specific cancer” (The United States of America as represented by the …, priority 1993, dated 1995).

Key:
[1] = tested on: NCI-H226; experiment: cells; conditions: Homo sapiens
[2] = tested on: SR; experiment: NCI in vitro screen, SRB percent growth, Leukemia
[3] = tested on: SNB-19; experiment: NCI in vitro screen, SRB percent growth, CNS Cancer; conditions: for TGI: PG=0; for GI50: PG=+50; for CC50: read-out: LC-50, PG=-50
[4] = tested on: RXF-393; experiment: NCI in vitro screen, SRB percent growth, Renal Cancer
[5] = tested on: SN12C; experiment: as above
[6] = tested on: OVCAR-4; experiment: NCI in vitro screen, SRB percent growth, Ovarian Cancer
[7] = tested on: NCI-H322M; experiment: NCI in vitro screen, SRB percent growth, Non-Small Cell Lung Cancer
[8] = tested on: HOP-92; experiment: cells; conditions: Homo sapiens
[9] = tested on: A498; experiment: NCI in vitro screen, SRB percent growth, Renal Cancer
[10] = tested on: DMS 273; experiment: NCI in vitro screen, SRB percent growth, Small Cell Lung Cancer
[11] = tested on: HOP-18; experiment: NCI in vitro screen, SRB percent growth, Non-Small Cell Lung Cancer
[12] = tested on: NCI-H522; experiment: as above
[13] = NCI-H226, read-out: Percent Growth
[14] = Log10 Concentration -4.0, 100 µM
[15] = Log10 Concentration -7.0, 0.1 µM
[16] = HOP-92, read-out: Percent Growth

Structure (SMILES): Cc1ccc2[nH]c3c(C)c4c(c(C)c3c2c1)CN(C)C=C4 [Formula XI]
- GI50 ([1]; NCI-H226): 0.329 µM
- CC50 ([1]; NCI-H226, read-out: LC-50): 17.4 µM
- activity at 0.01 µM [1, 13]: 99%
- activity at 0.1 µM [1, 13]: 83%
- activity at 1 µM [1, 13]: 19%
- activity at 10 µM [1, 13]: -43%
- activity at 100 µM [1, 13]: -71%
- IC (TGI) ([1]; NCI-H226, read-out: TGI): 2.02 µM
- Percent Growth [2, 14]: -42%
- Percent Growth ([2]; Log10 Concentration -5.0): 6%
- Percent Growth ([2]; Log10 Concentration -6.0, 1 µM): 47%
- Percent Growth [2, 15]: 86%
- Percent Growth ([2]; Log10 Concentration -8.0): 101%
- TGI ([2]; PG=0): 13.5 µM
- GI50 ([2]; PG=+50): 0.846 µM
- CC50 ([2]; read-out: LC-50, PG=-50): > 100 µM
- Percent Growth [3, 14]: -57%
- Percent Growth ([3]; Log10 Concentration -5.0): -51%
- Percent Growth ([3]; Log10 Concentration -6.0, 1 µM): 48%
- Percent Growth [3, 15]: 97%
- Percent Growth ([3]; Log10 Concentration -8.0): 104%
- TGI [3]: 3.04 µM
- GI50 [3]: 0.897 µM
- CC50 [3]: 9.78 µM
- Percent Growth [4, 14]: -92%
- Percent Growth ([4]; Log10 Concentration -5.0): 9%
- Percent Growth ([4]; Log10 Concentration -6.0, 1 µM): 51%
- Percent Growth [4, 15]: 96%
- Percent Growth ([4]; Log10 Concentration -8.0): 99%
- TGI ([4]; PG=0): 12.3 µM
- GI50 ([4]; PG=+50): 1.04 µM
- CC50 ([4]; read-out: LC-50, PG=-50): 38.5 µM
- Percent Growth [5, 14]: -92%
- Percent Growth ([5]; Log10 Concentration -5.0): -69%
- Percent Growth ([5]; Log10 Concentration -6.0, 1 µM): -36%
- Percent Growth [5, 15]: 66%
- Percent Growth ([5]; Log10 Concentration -8.0): 92%
- TGI ([5]; PG=0): 0.442 µM
- GI50 ([5]; PG=+50): 0.143 µM
- CC50 ([5]; read-out: LC-50, PG=-50): 2.65 µM
- Percent Growth [6, 14]: -85%
- Percent Growth ([6]; Log10 Concentration -5.0): -6%
- Percent Growth ([6]; Log10 Concentration -6.0, 1 µM): 68%
- Percent Growth [6, 15]: 96%
- Percent Growth ([6]; Log10 Concentration -8.0): 113%
- TGI ([6]; PG=0): 8.34 µM
- GI50 ([6]; PG=+50): 1.74 µM
- CC50 ([6]; read-out: LC-50, PG=-50): 36.3 µM
- Percent Growth [7, 14]: -100%
- Percent Growth ([7]; Log10 Concentration -5.0): 10%
- Percent Growth ([7]; Log10 Concentration -6.0, 1 µM): 99%
- Percent Growth [7, 15]: 139%
- Percent Growth ([7]; Log10 Concentration -8.0): 133%
- TGI ([7]; PG=0): 12.3 µM
- GI50 ([7]; PG=+50): 3.55 µM
- CC50 ([7]; read-out: LC-50, PG=-50): 35.1 µM

Structure (SMILES): COc1ccc2[nH]c3c(C)c4c(c(C)c3c2c1)CN(C)C=C4 [Formula VII]
- GI50 ([8]; HOP-92): 5.97 µM
- CC50 ([8]; HOP-92, read-out: LC-50): 86.8 µM
- activity at 0.01 µM [8, 16]: 121%
- activity at 0.1 µM [8, 16]: 100%
- activity at 1 µM [8, 16]: 95%
- activity at 10 µM [8, 16]: 37%
- activity at 100 µM [8, 16]: -56%
- IC (TGI) ([8]; HOP-92, read-out: TGI): 25.1 µM
- Percent Growth [3, 14]: 1%
- Percent Growth ([3]; Log10 Concentration -5.0): 0%
- Percent Growth ([3]; Log10 Concentration -6.0, 1 µM): 16%
- Percent Growth [3, 15]: 84%
- Percent Growth ([3]; Log10 Concentration -8.0): 95%
- TGI [3]: > 100 µM
- GI50 [3]: 0.318 µM
- CC50 [3]: > 100 µM
- Percent Growth [9, 14]: -3%
- Percent Growth ([9]; Log10 Concentration -5.0): 54%
- Percent Growth ([9]; Log10 Concentration -6.0, 1 µM): 93%
- Percent Growth [9, 15]: 114%
- Percent Growth ([9]; Log10 Concentration -8.0): 105%
- TGI ([9]; PG=0): 90.2 µM
- GI50 ([9]; PG=+50): 11.6 µM
- CC50 ([9]; read-out: LC-50, PG=-50): > 100 µM
- TGI ([10]; PG=0): 13.4 µM
- GI50 ([10]; PG=+50): 0.827 µM
- Percent Growth [11, 14]: -6%
- Percent Growth ([11]; Log10 Concentration -5.0): 71%
- Percent Growth ([11]; Log10 Concentration -6.0, 1 µM): 121%
- Percent Growth [11, 15]: 142%
- Percent Growth ([11]; Log10 Concentration -8.0): 174%
- TGI ([11]; PG=0): 82.8 µM
- GI50 ([11]; PG=+50): 18.8 µM
- CC50 ([11]; read-out: LC-50, PG=-50): > 100 µM
- Percent Growth [12, 14]: -46%
- Percent Growth ([12]; Log10 Concentration -5.0): -30%
- Percent Growth ([12]; Log10 Concentration -6.0, 1 µM): 40%
- Percent Growth [12, 15]: 91%
- Percent Growth ([12]; Log10 Concentration -8.0): 97%
- TGI ([12]; PG=0): 3.71 µM
- GI50 ([12]; PG=+50): 0.626 µM
- CC50 ([12]; read-out: LC-50, PG=-50): > 100 µM
